Test results reported in patent publication US8039481B2, “Tetrahydrofuran derivatives for use as inhibitors of matrix metalloproteinases” (Sanofi-Aventis, priority 2005, dated 2011).

Key:
[1] = molecular target: T1, catalytic domain of human collagenase-1 (MMP-1) (Homo sapiens, UniProt P03956); assay: Enzymatic activity of the catalytic domain of human collagenase-1 (MMP-1), fluorogenic substrate; type: biochemical
T1 construct: Determination of the Enzymatic Activity of the Catalytic Domain of Human Collagenase-1 (MMP-1); purchased Biocol, Potsdam MMP1
T1 sequence (P03956 100-269 limits assumed): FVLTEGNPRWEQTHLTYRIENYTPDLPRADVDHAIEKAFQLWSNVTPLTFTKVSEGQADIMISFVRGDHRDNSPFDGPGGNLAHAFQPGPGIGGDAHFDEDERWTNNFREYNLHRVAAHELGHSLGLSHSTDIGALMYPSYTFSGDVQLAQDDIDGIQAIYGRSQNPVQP
Procedure: Determination of the Enzymatic Activity of the Catalytic Domain of Human Collagenase-1 (MMP-1)
Activation of the proenzyme: 2 parts by volume of proenzyme are incubated with 1 part by volume of APMA solution at 37° C. for 1 hour. The APMA solution is prepared from a 10 mmol/l p-aminophenylmercuric acetate solution in 0.1 mmol/l NaOH by dilution with 3 parts by volume of tris/HCl buffer pH7.5 (see below). The pH is adjusted to between 7.0 and 7.5 by adding 1 mmol/l HCl. After activation of the enzyme, it is diluted with the tris/HCl buffer to a concentration of 2.5 μg/ml.
(§1) The enzymic activity is measured by incubating 10 μl of enzyme solution with 10 μl of a 3% strength (v/v) buffered dimethyl sulfoxide solution (reaction 1) for 15 minutes. The enzyme inhibitor activity is measured by incubating 10 μl of enzyme solution with 10 μl of a 3% strength (v/v) buffered dimethyl sulfoxide solution which contains the enzyme inhibitor (reaction 2).
The enzymic reaction both in the case of reaction 1 and in the case of reaction 2 is followed after addition of 10 μl of a 3% strength (v/v) aqueous dimethyl sulfoxide solution which contains 0.3 mmol/l of the substrate by fluorescence spectroscopy (328 nm (extinction)/393 nm (emission)), and the enzymic activity is presented as increase in extinction per minute.
The effect of the inhibitor is calculated as percentage inhibition by the following formula: % inhibition=100−[(increase in extinction/minute in reaction 2)/(increase in extinction/minute in reaction 1)×100].
The IC50, i.e. the inhibitor concentration necessary for 50% inhibition of the enzymic activity, is determined graphically by plotting the percentage inhibitions at various inhibitor concentrations.
The buffer solution contains 0.05% Brij (Sigma, Deisenhofen, Germany) and 0.1 mol/l tris/HCl, 0.1 mol/l NaCl, 0.01 mol/l CaCl2 (pH=7.5). The enzyme solution contains 2.5 μg/ml of the enzyme domain.
The substrate solution contains 0.3 mmol/l of the fluorogenic substrate (7-methoxycoumarin-4-yl)acetyl-Pro-Leu-Gly-Leu-3-(2′,4′-dinitrophenyl)-L-2,3-diaminopropionyl-Ala-Arg-NH2 (Bachem, Heidelberg, Germany).

[2] = molecular target: T2, catalytic domain of human collagenase-3 (MMP-13) (Homo sapiens, UniProt P45452); assay: Enzymatic activity of the catalytic domain of human collagenase-3 (MMP-13), fluorogenic substrate; type: biochemical
T2 construct: Determination of the Enzymatic Activity of the Catalytic Domain of Human Collagenase-3 (MMP-13); purchased INVITEK, Berlin 30 100 803
Procedure: Determination of the Enzymatic Activity of the Catalytic Domain of Human Collagenase-3 (MMP-13)
Activation of the proenzyme: 2 parts by volume of proenzyme were incubated with 1 part by volume of APMA solution at 37° C. for 1.5 hours. The APMA solution was prepared from a 10 mmol/l p-aminophenylmercuric acetate solution in 0.1 mmol/l NaOH by dilution with 3 parts by volume of Tris/HCl buffer pH 7.5 (see below). The pH was adjusted to between 7.0 and 7.5 by adding 1 mmol/l HCl. After activation of the enzyme it was diluted with the Tris/HCl buffer to a concentration of 1.67 μg/ml.
as §1, with “was” for “is”, “contained” for “contains”
The enzymic reaction both in the case of reaction 1 and in the case of reaction 2 was followed after addition of 10 μl of a 3% strength (v/v) aqueous dimethyl sulfoxide solution which contained 0.075 mmol/l of the substrate by fluorescence spectroscopy (328 nm (extinction)/393 nm (emission)).
The enzymic activity has been presented as increase in extinction/minute. The effect of the inhibitor was calculated as percentage inhibition by the following formula: % inhibition=100−[(increase in extinction/minute in reaction 2)/(increase in extinction/minute in reaction 1)×100].
The IC50, which is the concentration of inhibitor which is necessary for 50% inhibition of the enzymic activity, was determined graphically by plotting the percentage inhibitions at various inhibitor concentrations.
The buffer solution contained 0.05% Brij (Sigma, Deisenhofen, Germany) and 0.1 mol/l Tris/HCl, 0.1 mol/l NaCl, 0.01 mol/l CaCl2 (pH=7.5). The enzyme solution contained 1.67 μg/ml of the enzyme domain. The substrate solution contained 0.075 mmol/l of the fluorogenic substrate (7-methoxycoumarin-4-yl)acetyl-Pro-Leu-Gly-Leu-3-(2′,4′-dinitrophenyl)-L-2,3-diaminopropionyl-Ala-Arg-NH2 (Bachem, Heidelberg, Germany).

| SMILES | IC50 [1] [nM] | IC50 [2] [nM] |
| --- | --- | --- |
| O=C(O)C1C2CCOC2CCN1S(=O)(=O)c1ccc(Oc2ccc(F)cc2)cc1 (stereo not shown) [Example 10, 5-[4-(4-fluorophenoxy)benzenesulfonyl]octahydrofuro[3,2-c]pyridine-4-carboxylic acid] | > 10000 | 520 |
| O=C(NO)[C@@H]1[C@@H]2CCO[C@@H]2CCN1S(=O)(=O)c1ccc(-c2ccc(Cl)cc2)cc1 [Example 9] | 4100 | 58 |
| O=C(NO)C1C2CCOC2CCN1S(=O)(=O)c1ccc(-c2ccc(Cl)cc2)cc1 (stereo not shown) [Example 7, 5-(4′-chlorobiphenyl-4-sulfonyl)octahydrofuro[3,2-c]pyridine-4-(N-hydroxy)-carboxamide] | 29 | 1.8 |
| O=C(O)C1C2CCOC2CCN1S(=O)(=O)c1ccc(-c2ccc(Cl)cc2)cc1 (stereo not shown) [Example 6, 5-(4′-chlorobiphenyl-4-sulfonyl)octahydrofuro[3,2-c]pyridine-4-carboxylic acid] | > 10000 | 290 |
| O=C(NO)[C@H]1[C@H]2CCO[C@H]2CCN1S(=O)(=O)c1ccc(-c2ccc(Cl)cc2)cc1 [Example 8] | 14 | 1 |

Further lines, results first:

| IC50 [1] [nM] | IC50 [2] [nM] | SMILES |
| --- | --- | --- |
| 43 | 1 | O=C(NO)C1C2CCOC2CCN1S(=O)(=O)c1ccc(Oc2ccc(Cl)cc2)cc1 (stereo not shown) [Example 18, 5-[4-(4-chlorophenoxy)benzenesulfonyl]octahydrofuro[3,2-c]pyridine-4-(N-hydroxy)-carboxamide] |
| 10 | 0.7 | O=C(NO)[C@H]1[C@H]2CCO[C@H]2CCN1S(=O)(=O)c1ccc(Oc2ccc(F)cc2)cc1 [Example 12] |
| 1400 | 63 | O=C(NO)[C@@H]1[C@@H]2CCO[C@@H]2CCN1S(=O)(=O)c1ccc(Oc2ccc(F)cc2)cc1 [Example 13] |
| 39 | 2 | O=C(NO)C1C2CCOC2CCN1S(=O)(=O)c1ccc(Oc2ccc(F)cc2)cc1 (stereo not shown) [Example 11, 5-[4-(4-fluorophenoxy)benzenesulfonyl]octahydrofuro[3,2-c]pyridine-4-(N-hydroxy)-carboxamide] |
| 59 | 1 | N#Cc1ccc(Oc2ccc(S(=O)(=O)N3CC[C@@H]4OCC[C@@H]4[C@@H]3C(=O)NO)cc2)cc1 [Example 21] |
| 640 | 1 | CS(=O)(=O)c1ccc(Oc2ccc(S(=O)(=O)N3CC[C@@H]4OCC[C@@H]4[C@@H]3C(=O)NO)cc2)cc1 [Example 23] |
